The text below walks through data of patent publication US11630106B2, “Diagnostic test for distinguishing the smoking status of a subject” (PHILIP MORRIS PRODUCTS S.A., priority 2017, dated 2023).

For data set [1] the following is noted: cited from earlier work.
The conditions of data set [2]: mice; cited from earlier work.
For data set [3] the following is noted: cited from earlier work. The source holds these as a separate data set.
The conditions of data set [4]: 24-hour urine, cited from earlier work.
For data set [5] the following is noted: cited from earlier work. The source holds these as a separate data set.
A short description of data set [6]: Randomized, controlled, open-label, 3-arm study (CC, SA, SW): total NNAL, CEMA and free cotinine measured in urine. The format is in vivo, human. As to conditions: for Free Cotinine (ng/mL) SA: SA arm; for concentration at 2 day: human, inhaled. The text has this:
The study included healthy smokers switching to a heat-not-burn (smoke-free alternative (SW)) product or those observing smoking abstinence (SA), compared with continuing to use CC, for 5 days in confinement and prolonged by 85 days in an ambulatory setting. This was an ad libitum smoking study. Baseline measurements are taken by allowing the subject to smoke their chosen brand of conventional cigarette for 2 days. After this 2 day period, the subject is then elected to continue smoking conventional cigarettes, to switch to a smoke-free alternative or to abstain from smoking. The investigational period then begins. Methods for measuring each of the metabolites are described in Haziza et al. (2017) Data in Brief 10, 283-293.
During the confinement period, compliance to product/regimen allocation (exclusive use of smoke-free alternative and CC in SW and CC arms, respectively, and full abstinence from smoking in the SA arm) was ensured by strict distribution of each tobacco stick/CC when requested by the subject. During the ambulatory period, the subjects randomized to the SW arm were instructed to exclusively use HNB products and subjects randomized to the SA arm were instructed to abstain from smoking.
Furthermore, the data are represented as boxplots in the figures below. The bottom of the box is the first quartile (value below which 25% of the observations lie), the top is the third quartile (value below which 75% of the observations lie) and the middle bar is the median of the observations. The whiskers extend to the minimum observed value and maximum observe value respectively.

The conditions of data set [7]: cited from earlier work; for levels of total NNAL: smoking cessation study.
[8] abbreviates: intravenous infusion of nicotine in abstinent adult smokers.
Setting [9] is: 15 CPD during 5-day confinement.
[10] abbreviates: 20 CPD during 5-day confinement.
The mark [11] stands for this setting: consumers of conventional cigarettes.
Where [12] appears, read: consumers of smoke-free alternatives.

The structures appear in SMILES notation. Where two headings read alike, the source gives them in different places.

As for `CN1C(=O)[C@H](O)C[C@H]1c1cccnc1` (relative stereo) [trans-3′-hydroxycotinine], the total clearance entry in data set [1] (in vivo) is reported as “about 82 mL min-1”. In data set [1] (setting [8]), the half-life is on record as 6.6 h. Moreover, the “share of the dose of nicotine accounted for by the metabolite” value in data set [2] is reported as 40-60%.
As for `CC(=O)N[C@@H](CSCCC#N)C(=O)O` [CEMA, 2-cyanoethylmercapturic acid], the “levels of urinary CEMA” value in data set [3] (0 CPD during 5-day confinement) is 38.3 μg/24 h. The “levels of urinary CEMA” value in data set [3] (5 CPD during 5-day confinement) is recorded as 93.2 μg/24 h. In addition, the “levels of urinary CEMA” value in data set [3] (setting [9]) is 168.0 μg/24 h. The “levels of urinary CEMA” value in data set [3] (setting [10]) is on record as 218.0 μg/24 h. Moreover, in data set [3] (non-smokers), the “CEMA excreted (mean±SD)” value is 4.6 ± 35 µg/L; the “CEMA excreted (second value, 'or')” value was 1.9 µg/L; the “urinary excretion of CEMA, range” value is reported as “below 2 ng/mL”. In data set [3] (smokers), the “CEMA excreted (mean±SD)” value was 187 ± 181 µg/L; the “CEMA excreted (second value, 'or')” value is 184 µg/L; the “urinary excretion of CEMA, range” value is 20 to 205 ng/mL. Also, the “lowering of CEMA levels in urine” value in data set [3] (smoking cessation studies of 5 to 8 days) is reported as 7- to 10 fold. Besides, in data set [4] (setting [11]), the “baseline CEMA, range” value is recorded as 83-115 ng/mg creatinine; the “baseline CEMA, value in brackets” value is listed as 98 ng/mg creatinine; the “average increase at day 5 compared to baseline” value is 4.2%; the “change at day 5 compared to baseline, range” value (“change” for short) is reported as −4% to 12%. In data set [4] (setting [11]), the “CEMA at day 5, range” value was 85-115 ng/mg creatinine and the “CEMA at day 5, value in brackets” value is 99.5 ng/mg creatinine. Besides, in data set [4] (setting [12]), the “baseline CEMA, range” value is recorded as 85-112 ng/mg creatinine; the “baseline CEMA, value in brackets” value was 98 ng/mg creatinine; the “average decrease at day 5 compared to baseline” value (“average decrease” for short) is on record as −86%; the “change” value is −87% to −85%. Moreover, in data set [4] (setting [12]), the “CEMA at day 5, range” value was 11-15 ng/mg creatinine and the “CEMA at day 5, value in brackets” value is 13 ng/mg creatinine. Besides, in data set [4] (smoking abstainers), the “baseline CEMA, range” value is reported as 89-119 ng/mg creatinine; the “baseline CEMA, value in brackets” value is given as 103 ng/mg creatinine; the “average decrease” value is −86%; the “decrease at day 5 compared to baseline, range” value is −88 to −85%. In addition, in data set [4] (smoking abstainers), the “CEMA at day 5, range” value was 10-15 ng/mg creatinine and the “CEMA at day 5, value in brackets” value is recorded as 12 ng/mg creatinine.
In the case of `CN1C(=O)CC[C@H]1c1cccnc1` [Free Cotinine, cotinine], in data set [1] (in vivo), the in vivo half-life result is “about 20 hours”. For the same compound, the total clearance in data set [1] (in vivo) is 45 mL/min. Moreover, the half-life in data set [1] (setting [8]) is on record as 17.5 h. In addition, the “cotinine levels indicative of heavy smoker status” value in data set [5] (consuming more than 20 cigarettes a day) is “above 300 ng/mL”. Moreover, the “cotinine levels indicative of no active smoking” value in data set [5] (in vivo) is listed as below 10 ng/mL. Moreover, the entries for the “cotinine levels in active smokers” value in data set [5] (saliva) and in data set [5] (urine) were at least 100 ng/mL and at least 500 ng/mL, respectively. For the same compound, in data set [5] (urine, saliva or blood), the “detectability after smoking abstinence” value is “no longer detectable in urine, saliva or blood after about two days of smoking abstinence”. Moreover, the “Free Cotinine (ng/mL) SA” value fell in the range of 339 to 959 ng/mL in data set [6] (Day 2, IQR, listed as cotinine) and 128 to 313 ng/mL in data set [6] (Day 2, IQR, listed as free cotinine). The concentration at 2 day lay in the range of 546 to 1160 ng/mL in data set [6] (SW arm, Day 2, IQR, read-out: Free Cotinine (ng/mL) SW) and 459 to 1350 ng/mL in data set [6] (day 2, read-out: cotinine levels in conventional cigarette smokers). For the same compound, the “share of the dose of nicotine accounted for by the metabolite” value in data set [2] is on record as “about 15%”.
For the compound `O=NN1CCC[C@H]1c1cccnc1` [NNN], the “detectability in the urine of non-smokers” value in data set [7] is “Neither NNAL nor NNN are in principle detectable”.
On to `CN(CCCC(O)c1cccnc1)N=O` (stereo not shown) [Total NNAL, 4-(methylnitrosamino)-1-(3-pyridyl)-1-butanol], for which the “levels of urinary NNAL” value is reported as 311 ng/24 h in data set [7] (0 CPD during 5-day confinement), 422 ng/24 h in data set [7] (5 CPD during 5-day confinement), 549 ng/24 h in data set [7] (setting [9]) and 624 ng/24 h in data set [7] (setting [10]). Besides, the “levels of total NNAL” value in data set [7] (after 28 days) is recorded as 0.26 nmol/24 h; in data set [7] (after 42 days), 0.2 nmol/24 h; in data set [7] (baseline) it was 2.70 nmol/24 h; in data set [7] (day 56), 0.13 nmol/24 h. For the same compound, the “decrease of NNAL levels” value in data set [7] (smoking cessation/abstinence studies lasting 3 to 8 days) was 3- to 4 fold. For the same compound, the “detectability in the urine of non-smokers” value in data set [7] is “Neither NNAL nor NNN are in principle detectable”. Besides, in data set [7] (urine), the “urine levels in non-smokers using other tobacco or nicotine replacement products or exposed to second-hand smoke” value is given as around 0.1 nmol. In addition, in data set [7] (usually measured in the urine, estimated), the half-life is 17 h. Besides, the “baseline total NNAL, range” value in data set [4] (setting [11]) is given as 84-131 pg/mg creatinine; in data set [4] (setting [12]), 95-129 pg/mg creatinine; in data set [4] (smoking abstainers) it was 94-150 pg/mg creatinine. The “baseline total NNAL, value in brackets” value in data set [4] (setting [11]) is given as 105 pg/mg creatinine; in data set [4] (setting [12]), 111 pg/mg creatinine; in data set [4] (smoking abstainers) it was 119 pg/mg creatinine. Besides, the “average increase at day 5 compared to baseline” value in data set [4] (setting [11]) is 3.9%. For the same compound, the “change” value is given as −2.8% to 10.5% in data set [4] (setting [11]) and −57% to −51% in data set [4] (setting [12]). In addition, the “total NNAL at day 5, range” value in data set [4] (setting [11]) is 85-133 pg/mg creatinine; in data set [4] (setting [12]) it was 42-58 pg/mg creatinine; in data set [4] (smoking abstainers), 31-54 pg/mg creatinine. Further, the “total NNAL at day 5, value in brackets” value in data set [4] (setting [11]) is 107 pg/mg creatinine; in data set [4] (setting [12]) it was 49 pg/mg creatinine; in data set [4] (smoking abstainers) it was 41 pg/mg creatinine. Besides, the “average decrease” value in data set [4] (setting [12]) is −54%; in data set [4] (smoking abstainers), −63.9%. The “decrease at day 5 compared to baseline, range” value in data set [4] (smoking abstainers) is recorded as −67 to −61%. In data set [6] (SW arm, Day 5, IQR), the “Total NNAL (pg/mL) SW” value fell in the range of 17 to 41 pg/mL. For the same compound, the “total NNAL levels in smoking abstainers” value in data set [6] (between day 5 and day 30) was in the range of 2.5 to 46 pg/mL.
On to `C[N+]1([O-])CCC[C@H]1c1cccnc1` (stereo partly shown) [nicotine-1′-N-oxide], for which, in data set [1] (in vivo), the “share of the nicotine absorbed by smokers (minor metabolite)” value is 4-7%.
On to `CN1CCCC1c1cccnc1` (stereo not shown) [nicotine], for which the half-life in data set [1] (in vivo, iv) is given as 2.3 h. For the same compound, in data set [1] (in vivo), the “share of the inhaled amount metabolized by the liver (first pass effect)” value was 80-90% and the total clearance entry is “about 1200 mL min-1”.
